Results on one molecule are retold here after patent publication US20050136079A1, “Cosmetic compositions containing fullerene clusters” (priority 2003, published 2005).

This test is described as follows: Antioxidant activity (AOA) by coulometric titration with electrogenerated bromine-based oxidants. The following applies: Coulombs spent for titration of 100 g of analyzed material; sample macerated 1:5 in water or water/alcohol. The method, then: The quantitative assessment of the antioxidant activity of the cosmetic composition containing fullerene clusters was tested utilizing bromine-based oxidants generated electrochemically.
Procedure: • 1. Electrogeneration of bromine-based oxidants and coulonometric tritration were performed with a potentiostate using 1 cm^2 platinum working electrode at a current 5 mA • 2. Bromine oxidant was generated 0.2 M KBr dissolved in 0.1M H2SO4/tartrate buffer solution, which ensure 100% yield of oxidant by current. The final point was determined amperometrically with two polarized platinum electrodes at E=20 mV. • 3. Samples for analysis in water or water/alcohol media were obtained by maceration of the mixture of a cosmetic containing the active ingredient listed in the following table and this media taken in proporation 1:5 by weight. • 4. Antioxidant activity (AOA) is expressed as amount of Coulombs spent for titration of 100 g of the analyzed starting cosmetic substance.
Bromine compounds including Br2, Br3^− and active bromo-radicals are electrochemically generated and adsorbed at the surface of the platinum electrode and then these radicals act as oxidating agents in redox reactions, reactions of electrophilic substitution and addition to double bonds e.g. in the fullerene molecules in the fullerene cluster of cosmetic composition. […]

Molecule `CCCCC/C=C\C/C=C\CCCCCCCC(=O)O` [Linoleic Acid without C60, Linoleic Acid] came in with an AOA of 4.8 kCb/100 g.
